Source: patent publication US4829076A, “Novel dihydropyridines having calcium antagonistic and antihypertensive activity” (Alkaloida Vegyeszeti Gyar, priority 1986, dated 1989)
Read-outs that look alike come from different tables or passages of the source.

What was measured:
[1] = test system: anesthetized, normotensive cats; assay: Hypotensive effect in anesthetized, normotensive cats; assay type: in vivo, cat; conditions: 1 mg/kg id.
Experimental: A tube was inserted in the trachea of cats anesthetized with ip.35 mg/kg of pentobarbital sodium to ensure spontaneous respiration. The femoral artery and vein were both cannulated unilaterally. The vegetative test compounds (adrenaline, isoproterenol) were administered through the venous cannule. The mean arterial blood pressure was measured by joining the arterial cannule to a Statham P23Db pressure transducer and electromanometer. The heart rate was determined by a cardiotachometer triggered by arterial pulse-wave.
Various doses of the test compounds were administered through a cannule inserted into the duodenum.

[2] = test system: PGF2alpha induced uterus contractions (isolated rat uterus); assay: In vitro uterus relaxant activity in the isolated rat uterus (inhibition of PGF2alpha induced contraction); conditions: 10^-6 M test compound
Experimental: The test was performed according to the method of Gaddum and Hammeed [Brit. […] The inhibitory activity of 10^-6 M doses of the test compounds on the PGF2alpha induced uterus contractions was determined.

[3] = test system: spontaneously hypertensive conscious rats; assay: Antihypertensive effect in spontaneously hypertensive conscious rats ("SH" rats); assay type: in vivo, rat (Wistar-Okamoto); conditions: for change in vivo at 10 mg/kg / change in vivo at 2.5 mg/kg: Rattus norvegicus, po
Experimental: The blood pressure of rats was measured before treatment and hourly after drug administration till the 24th posttreatment hour. The test compounds were administered orally, by gavage.

[4] = 10 mg/kg p.o., 2 h, read-out: Systolic blood pressure reduction in %, 2 h
[5] = 10 mg/kg p.o., 5 h, read-out: Systolic blood pressure reduction in %, 5 h
[6] = 10 mg/kg p.o., 24 h, read-out: Systolic blood pressure reduction in %, 24 h

| Compound | Mean arterial pressure, 5 min [1] [Hgmm] | Mean arterial pressure, 15 min [1] [Hgmm] | Mean arterial pressure, 30 min [1] [Hgmm] | Mean arterial pressure, 60 min [1] [Hgmm] | Mean arterial pressure, 120 min [1] [Hgmm] | Inhibition of PGF2alpha induced contraction [2] [%] | Systolic blood pressure, 2 h ([3]; 10 mg/kg p.o., 2 h) [Hgmm] | Systolic blood pressure, 5 h ([3]; 10 mg/kg p.o., 5 h) [Hgmm] | Systolic blood pressure, 24 h ([3]; 10 mg/kg p.o., 24 h) [Hgmm] | change in vivo at 10 mg/kg [3, 4] [%] | change in vivo at 10 mg/kg [3, 5] [%] | change in vivo at 10 mg/kg [3, 6] [%] | Systolic blood pressure, 2 h ([3]; 2.5 mg/kg p.o., 2 h) [Hgmm] | Systolic blood pressure, 5 h ([3]; 2.5 mg/kg p.o., 5 h) [Hgmm] | Systolic blood pressure, 24 h ([3]; 2.5 mg/kg p.o., 24 h) [Hgmm] | change in vivo at 2.5 mg/kg ([3]; 2.5 mg/kg p.o., 2 h, read-out: Systolic blood pressure reduction in %, 2 h) [%] | change in vivo at 2.5 mg/kg ([3]; 2.5 mg/kg p.o., 5 h, read-out: Systolic blood pressure reduction in %, 5 h) [%] | change in vivo at 2.5 mg/kg ([3]; 2.5 mg/kg p.o., 24 h, read-out: Systolic blood pressure reduction in %, 24 h) [%] |
| --- | --- | --- | --- | --- | --- | --- | --- | --- | --- | --- | --- | --- | --- | --- | --- | --- | --- | --- |
| COC(=O)C1=C(C)NC(C)=C(C(=O)OC)C1c1ccccc1NC(=O)c1ccc(Cl)cc1 [Example 6] | 115 | 85 | 65 | 70 | 75 | – | – | – | – | – | – | – | – | – | – | – | – | – |
| COC(=O)C1=C(C)NC(C)=C(C(=O)OC)C1c1ccccc1NC(=O)c1ccccc1[N+](=O)[O-] [Example 8] | – | – | – | – | – | 96.7 | – | – | – | – | – | – | – | – | – | – | – | – |
| COC(=O)C1=C(C)NC(C)=C(C(=O)OC)C1c1ccccc1NC(=O)C=Cc1ccccc1 [Example 9] | 125 | 85 | 65 | 75 | 102 | 94.3 | 166.6 | 166.6 | 192.0 | -13 | -13 | 1 | – | – | – | – | – | – |
| COC(=O)C1=C(C)NC(C)=C(C(=O)OC)C1c1ccccc1NC(=O)c1ccco1 [Example 10] | 60 | 70 | 80 | 85 | – | 94.0 | – | – | – | – | – | – | – | – | – | – | – | – |
| COC(=O)C1=C(C)NC(C)=C(C(=O)OC)C1c1ccccc1NC(=O)C=Cc1ccc([N+](=O)[O-])cc1 [Example 11] | 147 | 130 | 125 | 120 | 132 | 77.8 | 140 | 157.8 | 178.8 | -26 | -16 | -5 | – | – | – | – | – | – |
| COC(=O)C1=C(C)NC(C)=C(C(=O)OC)C1c1ccccc1NC(=O)c1ccccc1 [Example 12] | 115 | 92 | 90 | 97 | 145 | 83.3 | 164 | 166.0 | 190.8 | -14 | -13 | 0 | – | – | – | – | – | – |
| COC(=O)C1=C(C)NC(C)=C(C(=O)OC)C1c1ccccc1NC(=O)c1ccc(OC)cc1 [Example 14] | 150 | 75 | 85 | 95 | 110 | – | 165 | 164.5 | 206.8 | -17 | -17 | 4 | – | – | – | – | – | – |
| CCCCCCCC(=O)Nc1ccccc1C1C(C(=O)OC)=C(C)NC(C)=C1C(=O)OC [Example 18] | 75 | – | 100 | 100 | – | – | 179.2 | 178 | 192.6 | -11 | -11 | -4 | – | – | – | – | – | – |
| COC(=O)C1=C(C)NC(C)=C(C(=O)OC)C1c1ccccc1NC(=O)c1cccc(C)c1 [Example 20] | 140 | – | 105 | 105 | 120 | – | – | – | – | – | – | – | – | – | – | – | – | – |
| COC(=O)C1=C(C)NC(C)=C(C(=O)OC)C1c1ccccc1NC(=O)c1ccccc1C [Example 21] | 90 | 95 | 100 | 110 | 110 | – | 175.2 | 167.8 | 201.4 | -10 | -14 | 4 | – | – | – | – | – | – |
| CCc1ccc(C(=O)Nc2ccccc2C2C(C(=O)OC)=C(C)NC(C)=C2C(=O)OC)cc1 [Example 22] | 120 | 110 | 105 | 85 | 85 | – | – | – | – | – | – | – | 142.2 | 144.0 | 191.4 | -27 | -26 | -2 |
| COCCOC(=O)C1=C(C)NC(C)=C(C(=O)OC)C1c1ccccc1NC(=O)c1ccc([N+](=O)[O-])cc1 (centres unmarked) [Example 28] | 137 | 105 | 97 | 100 | 115 | – | 174.8 | 163.5 | 202.4 | -10 | -16 | 4 | – | – | – | – | – | – |
| COCCOC(=O)C1=C(C)NC(C)=C(C(=O)OC)C1c1ccccc1NC(=O)C(F)(F)F (centres unmarked) [Example 36, 2,6-Dimethyl-3-methoxycarbonyl-5-(2-methoxyethoxycarbonyl)-4-(2-trifluoroacetamidophenyl)-1,4-dihydropyridine] | – | – | – | – | – | – | 172.8 | 172.4 | 222.0 | -19 | -19 | 4 | – | – | – | – | – | – |
| COC(=O)C1=C(C)NC(C)=C(C(=O)OC(C)C)C1c1ccccc1NC(=O)C(F)(F)F (centres unmarked) [Example 37, 2,6-Dimethyl-3-isopropoxycarbonyl-5-methoxycarbonyl-4-(2-trifluoroacetamidophenyl)-1,4-dihydrophyridine] | 150 | 100 | 100 | 100 | 135 | – | – | – | – | – | – | – | – | – | – | – | – | – |
| COC(=O)C1=C(C)NC(C)=C(C(=O)OC)C1c1ccccc1NS(C)(=O)=O [Example 41, 2,6-Dimethyl-4-n2-methanesulfonylamidophenyl)-3,5-bis(methoxycarbonyle-1,4-dihydropyridine] | 90 | 80 | 85 | – | – | – | – | – | – | – | – | – | – | – | – | – | – | – |
| COC(=O)C1=C(C)NC(C)=C(C(=O)OC)C1c1ccccc1NS(=O)(=O)c1ccc([N+](=O)[O-])cc1 [Example 42, 2,6-Dimethyl-3,5bis(methoxycarbonyl)-4-[2-(4-nitrobenzenesulfonamido)-phenyl]-1,4-dihydropyridine] | – | – | – | – | – | 88.0 | – | – | – | – | – | – | – | – | – | – | – | – |
